Results from the supplement of paper PMC10307832.

How the values were obtained:
Experiment in all cases: relative viability (nuclei count vs DMSO), 5 days (fraction); higher = more cells survive
[1] = test system: A-427
Procedure, shortened: (§1)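 Each reported value is a median over duplicate plates. It expresses relative viability: treated-well nuclei count divided by vehicle-well nuclei count. Lung cancer cell lines in 1536-well plates were dosed by pin tool a day after seeding, alone with one drug or with a fixed anchor-drug dose plus five library-drug doses (not always all listed) in √10 steps, and nuclei were counted after 5 days.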

[2] = test system: EPLC-272H
Procedure, shortened: as §1

[3] = test system: HCC-15
Procedure, shortened: as §1

[4] = test system: LC-2-ad
Procedure, shortened: as §1

[5] = test system: LK-2
Procedure, shortened: as §1

[6] = test system: NCI-H1734
Procedure, shortened: as §1

[7] = test system: NCI-H1793
Procedure, shortened: as §1

[8] = test system: NCI-H1915
Procedure, shortened: as §1

[9] = test system: NCI-H1944
Procedure, shortened: as §1

[10] = test system: NCI-H2009
Procedure, shortened: as §1

[11] = test system: NCI-H2023
Procedure, shortened: as §1

[12] = test system: NCI-H2347
Procedure, shortened: as §1

[13] = test system: NCI-H322M
Procedure, shortened: as §1

[14] = test system: NCI-H358
Procedure, shortened: as §1

[15] = test system: NCI-H441
Procedure, shortened: as §1

[16] = test system: NCI-H647
Procedure, shortened: as §1

[17] = test system: NCI-H838
Procedure, shortened: as §1

[18] = test system: RERF-LC-KJ
Procedure, shortened: as §1

[19] = test system: SW 1573
Procedure, shortened: as §1

[20] = test system: UMC-11
Procedure, shortened: as §1

For `Cc1cn(-c2cc(NC(=O)c3ccc(C)c(Nc4nccc(-c5cccnc5)n4)c3)cc(C(F)(F)F)c2)cn1` [Nilotinib] + Cc1nc(NC(=O)N2CCC[C@H]2C(N)=O)sc1-c1ccnc(C(C)(C)C(F)(F)F)c1 [Alpelisib] (partner 2 µM), the relative viability ([1]; first compound 0.001 µM) was 1.07, the relative viability ([1]; first compound 0.01 µM) was 1.13 and the relative viability ([1]; first compound 0.03162 µM) was 1.06. The relative viability ([1]; first compound 0.1 µM) was 0.808, the relative viability ([2]; first compound 0.003162 µM) was 1.01 and the relative viability ([2]; first compound 0.03162 µM) was 0.894. For the same compound, the relative viability ([2]; first compound 0.1 µM) was 0.763, the relative viability ([3]; first compound 0.001 µM) was 0.824 and the relative viability ([3]; first compound 0.003162 µM) was 1.11. The relative viability ([3]; first compound 0.01 µM) was 1.05, the relative viability ([3]; first compound 0.03162 µM) was 0.727 and the relative viability ([3]; first compound 0.1 µM) was 0.616. For the same compound, the relative viability ([4]; first compound 0.001 µM) was 0.876, the relative viability ([4]; first compound 0.003162 µM) was 1 and the relative viability ([4]; first compound 0.01 µM) was 1.03. The relative viability ([4]; first compound 0.03162 µM) was 0.918, the relative viability ([4]; first compound 0.1 µM) was 0.833 and the relative viability ([5]; first compound 0.001 µM) was 1.16. The relative viability ([5]; first compound 0.003162 µM) was 0.966, the relative viability ([5]; first compound 0.03162 µM) was 1 and the relative viability ([5]; first compound 0.1 µM) was 1.22. For the same compound, the relative viability ([6]; first compound 0.001 µM) was 0.692, the relative viability ([6]; first compound 0.003162 µM) was 0.638 and the relative viability ([6]; first compound 0.01 µM) was 0.682. For the same compound, the relative viability ([6]; first compound 0.03162 µM) was 0.551, the relative viability ([6]; first compound 0.1 µM) was 0.507 and the relative viability ([7]; first compound 0.003162 µM) was 0.778. It also gave a relative viability ([7]; first compound 0.01 µM) of 0.861, a relative viability ([7]; first compound 0.03162 µM) of 0.625 and a relative viability ([7]; first compound 0.1 µM) of 0.454. The relative viability ([8]; first compound 0.001 µM) was 0.981, the relative viability ([8]; first compound 0.003162 µM) was 1.1 and the relative viability ([8]; first compound 0.01 µM) was 1.14. The relative viability ([8]; first compound 0.03162 µM) was 1.01, the relative viability ([8]; first compound 0.1 µM) was 0.981 and the relative viability ([9]; first compound 0.001 µM) was 0.867. The relative viability ([9]; first compound 0.003162 µM) was 0.876, the relative viability ([9]; first compound 0.01 µM) was 1.02 and the relative viability ([9]; first compound 0.03162 µM) was 0.837. The relative viability ([9]; first compound 0.1 µM) was 0.767, the relative viability ([10]; first compound 0.001 µM) was 1.13 and the relative viability ([10]; first compound 0.003162 µM) was 1.2. It also gave a relative viability ([10]; first compound 0.01 µM) of 1.25, a relative viability ([10]; first compound 0.03162 µM) of 1.14 and a relative viability ([10]; first compound 0.1 µM) of 1.14. For the same compound, the relative viability ([11]; first compound 0.001 µM) was 0.513, the relative viability ([11]; first compound 0.003162 µM) was 0.655 and the relative viability ([11]; first compound 0.01 µM) was 0.654. It also gave a relative viability ([11]; first compound 0.03162 µM) of 0.558, a relative viability ([11]; first compound 0.1 µM) of 0.478 and a relative viability ([12]; first compound 0.001 µM) of 1.01. For the same compound, the relative viability ([12]; first compound 0.003162 µM) was 1.12, the relative viability ([12]; first compound 0.01 µM) was 1.03 and the relative viability ([12]; first compound 0.03162 µM) was 0.981. For the same compound, the relative viability ([12]; first compound 0.1 µM) was 1.01, the relative viability ([13]; first compound 0.001 µM) was 0.882 and the relative viability ([13]; first compound 0.003162 µM) was 0.817. It also gave a relative viability ([13]; first compound 0.03162 µM) of 0.72, a relative viability ([13]; first compound 0.1 µM) of 0.866 and a relative viability ([14]; first compound 0.001 µM) of 0.958. It also gave a relative viability ([14]; first compound 0.003162 µM) of 1.18, a relative viability ([14]; first compound 0.01 µM) of 0.999 and a relative viability ([14]; first compound 0.03162 µM) of 0.686. The relative viability ([14]; first compound 0.1 µM) was 0.666, the relative viability ([15]; first compound 0.001 µM) was 0.761 and the relative viability ([15]; first compound 0.003162 µM) was 1.14. The relative viability ([15]; first compound 0.01 µM) was 0.765, the relative viability ([15]; first compound 0.1 µM) was 0.951 and the relative viability ([16]; first compound 0.001 µM) was 0.956. It also gave a relative viability ([16]; first compound 0.003162 µM) of 1.16, a relative viability ([16]; first compound 0.03162 µM) of 0.958 and a relative viability ([16]; first compound 0.1 µM) of 0.872. It also gave a relative viability ([17]; first compound 0.001 µM) of 1.06, a relative viability ([17]; first compound 0.003162 µM) of 1.31 and a relative viability ([17]; first compound 0.01 µM) of 1.26. For the same compound, the relative viability ([17]; first compound 0.1 µM) was 1.09, the relative viability ([18]; first compound 0.001 µM) was 0.788 and the relative viability ([18]; first compound 0.003162 µM) was 0.831. For the same compound, the relative viability ([18]; first compound 0.01 µM) was 0.838, the relative viability ([18]; first compound 0.03162 µM) was 0.727 and the relative viability ([18]; first compound 0.1 µM) was 0.777. For the same compound, the relative viability ([19]; first compound 0.001 µM) was 0.867, the relative viability ([19]; first compound 0.003162 µM) was 0.764 and the relative viability ([19]; first compound 0.01 µM) was 0.92. The relative viability ([19]; first compound 0.03162 µM) was 0.594, the relative viability ([19]; first compound 0.1 µM) was 0.682 and the relative viability ([20]; first compound 0.001 µM) was 0.928. The relative viability ([20]; first compound 0.003162 µM) was 1.15, the relative viability ([20]; first compound 0.01 µM) was 1.07 and the relative viability ([20]; first compound 0.1 µM) was 1.22.
